The test system of assay [1] is Escherichia coli. As to the kind of experiment: Antimicrobial activity against Escherichia coli by agar diffusion test. The assay is classed as functional. Background: Agar diffusion results depend on both activity and mobility in agar.
In assay [2] the test system is Microbotryum violaceum. As to the kind of experiment: Antifungal activity against Microbotryum violaceum by agar diffusion test. The class given is functional.
The test system of assay [3] is [Chlorella] fusca. As to the kind of experiment: Antialgal activity against 'Chlorella' fusca by agar diffusion test. The assay is classed as functional, Scenedesmus fuscus.
Assay [4] has as its system Priestia megaterium. As to the kind of experiment: Antimicrobial activity against Bacillus megaterium by agar diffusion test. The class given is functional.
Assay [5] concerns Zymoseptoria tritici. The assay is described as follows: Antifungal activity against Zymoseptoria tritici by agar diffusion test. The class given is functional.
Assay [6] has as its system Phytophthora infestans. The assay is described as follows: Antifungal activity against Phytophthora infestans by agar diffusion test. The assay is classed as functional.
The test system of assay [7] is Botrytis cinerea. As to the kind of experiment: Antifungal activity against Botryotinia fuckeliana by agar diffusion test. The class given is functional.
Assay [8] concerns Pyricularia oryzae. The assay is described as follows: Antifungal activity against Magnaporthe oryzae by agar diffusion test. The class given is functional.

As to `C[C@@H]1C[C@@H]([C@H](O)CC2CC(=O)NC(=O)C2)C(=O)[C@@H](C)C1` [CYCLOHEXIMIDE], the “inhibition zone (IZ)” value in assay [1] came to 0 mm; in assay [2] it was 50 mm; in assay [3], 35 mm; in assay [4] it was 0 mm.
As for `CC1(C)S[C@@H]2[C@H](NC(=O)Cc3ccccc3)C(=O)N2[C@H]1C(=O)O` [PENICILLIN G], the “inhibition zone (IZ)” value in assay [1] was 14 mm; in assay [2] it was 0 mm; in assay [3] it was 0 mm; in assay [4], 18 mm.
As to `COc1cc(=O)oc2c1CO[C@@H](CC(C)=O)C2` [PYRENOCINE K], the “inhibition zone (IZ)” value in assay [5] is 6 mm; in assay [6], 0 mm; in assay [7] it was 0 mm; in assay [1], 6 mm; in assay [2], 5 mm; in assay [3], 6 mm. In addition, the “inhibition zone (IZ)” value turned out to be 8 mm in assay [4] and 0 mm in assay [8].
Take `CCC[C@@H](Cc1oc(=O)cc(OC)c1CO)OC(C)=O` [PYRENOCINE L]: the “inhibition zone (IZ)” value was 0 mm in assay [5]; 0 mm in assay [6]; 0 mm in assay [7]; 10 mm in assay [1]; 0 mm in assay [2]; 10 mm in assay [3]. Further, the “inhibition zone (IZ)” value in assay [4] amounted to 9 mm; in assay [8], 0 mm.
For `CCCCCc1oc(=O)cc(OC)c1CO` [PYRENOCINE M], the “inhibition zone (IZ)” value in assay [5] is on record as 6 mm; in assay [6], 0 mm; in assay [7], 0 mm; in assay [1], 5 mm; in assay [2] it was 5 mm; in assay [3], 5 mm. Besides, the “inhibition zone (IZ)” value in assay [4] is listed as 9 mm; in assay [8], 0 mm.
For `CN(C)[C@@H]1C(O)=C(C(N)=O)C(=O)[C@@]2(O)C(O)=C3C(=O)c4c(O)cccc4[C@@](C)(O)[C@H]3C[C@@H]12` [TETRACYCLINE], the “inhibition zone (IZ)” value is given as 18 mm in assay [1], 0 mm in assay [2], 10 mm in assay [3] and 18 mm in assay [4].
Take NYSTATIN: the inhibition zone (IZ) in assay [1] turned out to be 0 mm; in assay [2], 20 mm; in assay [3] (Scenedesmus fuscus), 0 mm; in assay [4] it was 0 mm.

The record behind these values is ChEMBL document CHEMBL3045257, “Pyrenocines J-M: four new pyrenocines from the endophytic fungus, Phomopsis sp” (2012).
